Assay results: patent publication US11078206B2, “Amino-fluoropiperidine derivatives as kinase inhibitor” (Daewoong Pharmaceutical Co., Ltd., priority 2017, dated 2021)

Tests used:
[1] = test system: JAK3 kinase (STAT5 phosphorylation induced by IL-2 in HT-2 cells); test: JAK3-mediated cell assay (HT-2/IL-2 assay), STAT5 phosphorylation; format: cell-based; settings: HT2, compound 30 minutes, IL-2 20 ng/ml 10 minutes, HTRF phospho-STAT5 (Tyr694)
Method: The inhibitory activities against JAK3 kinase at the cellular level were measured for the compounds prepared in the Examples through in vitro analysis of STAT5 phosphorylation induced by IL-2 stimulation in HT-2 cells. Specifically, STAT5 phosphorylation was analyzed using HTRF®phospho-STAT5 (Tyr694) assay kit (Cisbio, 64AT5PEG), which was purchased from Cisbio. HT-2 cells were cultured for 2 hours in growth factor-free medium. The cultured HT-2 cells were dispensed into 96-well plates by 50 ul so as to be a density of 2.5×10^5 cells/well. The compounds prepared in the previous Examples were prepared so as to be finally a 0.3% DMSO aqueous solution, and HT-2 cells was treated with the compounds for 30 minutes. After the compound treatment, IL-2 was prepared so as to be finally a concentration of 20 ng/ml, and HT-2 cells was treated for 10 minutes. The cells were then disrupted by treating lysis buffers for 30 minutes. The level of STAT5 phosphorylation was measured according to the instructions of HTRF® phospho-STAT5 assay kit, and the inhibitory activity of the compounds according to the invention was calculated. For the analysis of the results of each compound, Microsoft Excel was used, and IC50 values were calculated by SigmaPlot software.

[2] = target: Recombinant purified human BTK (Homo sapiens (Human), UniProt Q06187); test: BTK kinase inhibitory activity (ADP Glo assay); settings: read-out: BTK IC50, ATP 10 uM, 1 hour 30° C.
Recombinant purified human BTK, sequence (Q06187 whole entry): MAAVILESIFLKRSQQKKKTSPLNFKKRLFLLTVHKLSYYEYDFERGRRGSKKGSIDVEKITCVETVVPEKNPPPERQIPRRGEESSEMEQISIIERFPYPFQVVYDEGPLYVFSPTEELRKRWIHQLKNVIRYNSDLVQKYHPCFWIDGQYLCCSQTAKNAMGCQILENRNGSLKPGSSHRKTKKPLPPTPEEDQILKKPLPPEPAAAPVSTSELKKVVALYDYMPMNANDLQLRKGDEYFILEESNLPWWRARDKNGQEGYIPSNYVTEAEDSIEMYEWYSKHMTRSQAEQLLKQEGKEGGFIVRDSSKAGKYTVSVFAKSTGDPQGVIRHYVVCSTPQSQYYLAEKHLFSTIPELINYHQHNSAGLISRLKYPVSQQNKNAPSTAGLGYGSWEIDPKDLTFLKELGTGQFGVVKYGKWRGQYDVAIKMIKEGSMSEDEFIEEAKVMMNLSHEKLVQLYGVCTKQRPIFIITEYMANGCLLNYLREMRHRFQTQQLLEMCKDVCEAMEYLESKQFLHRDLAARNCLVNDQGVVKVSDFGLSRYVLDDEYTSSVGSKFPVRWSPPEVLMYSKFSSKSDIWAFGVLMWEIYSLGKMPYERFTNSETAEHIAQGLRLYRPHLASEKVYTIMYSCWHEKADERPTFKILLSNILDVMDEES

[3] = target: Recombinant purified human JAK3 (Homo sapiens (Human), UniProt P52333); test: JAK3 kinase inhibitory activity (ADP Glo assay); settings: read-out: JAK3 IC50, ATP 5 uM, 1 hour 30° C.
Recombinant purified human JAK3, sequence (P52333 whole entry): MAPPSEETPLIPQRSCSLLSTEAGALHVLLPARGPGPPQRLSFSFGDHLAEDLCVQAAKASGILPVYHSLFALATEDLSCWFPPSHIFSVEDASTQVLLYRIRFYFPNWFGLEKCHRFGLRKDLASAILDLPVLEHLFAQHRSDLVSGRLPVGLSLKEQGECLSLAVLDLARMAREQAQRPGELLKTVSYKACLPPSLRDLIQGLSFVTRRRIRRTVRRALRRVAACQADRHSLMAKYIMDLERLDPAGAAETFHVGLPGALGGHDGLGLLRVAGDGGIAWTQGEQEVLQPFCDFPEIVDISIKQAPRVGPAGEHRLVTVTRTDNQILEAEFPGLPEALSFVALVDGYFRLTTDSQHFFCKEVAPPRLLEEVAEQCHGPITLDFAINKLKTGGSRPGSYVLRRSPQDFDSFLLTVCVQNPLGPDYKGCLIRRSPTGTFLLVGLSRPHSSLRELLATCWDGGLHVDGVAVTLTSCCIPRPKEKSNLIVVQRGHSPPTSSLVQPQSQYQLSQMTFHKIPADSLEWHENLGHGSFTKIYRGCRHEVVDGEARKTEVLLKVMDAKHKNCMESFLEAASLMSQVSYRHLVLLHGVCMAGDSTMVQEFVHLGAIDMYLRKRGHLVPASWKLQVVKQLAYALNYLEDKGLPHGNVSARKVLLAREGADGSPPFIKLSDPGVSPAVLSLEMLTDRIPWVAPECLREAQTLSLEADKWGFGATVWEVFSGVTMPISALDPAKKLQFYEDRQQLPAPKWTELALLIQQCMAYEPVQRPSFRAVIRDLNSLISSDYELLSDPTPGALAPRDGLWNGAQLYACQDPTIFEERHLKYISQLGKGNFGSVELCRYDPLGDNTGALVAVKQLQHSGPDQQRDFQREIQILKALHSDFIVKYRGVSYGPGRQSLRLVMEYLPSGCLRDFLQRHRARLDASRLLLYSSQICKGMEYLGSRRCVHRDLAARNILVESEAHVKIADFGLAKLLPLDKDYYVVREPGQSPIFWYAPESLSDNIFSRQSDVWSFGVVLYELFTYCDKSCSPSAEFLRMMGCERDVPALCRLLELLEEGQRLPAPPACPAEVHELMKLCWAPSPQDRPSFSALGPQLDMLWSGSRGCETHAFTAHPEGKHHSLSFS

| IC50 [1] [nM] | IC50 [2] [nM] | IC50 [3] [nM] | SMILES |
| --- | --- | --- | --- |
| 30.9 | 0.6 | 0.1 | C=CC(=O)N1CC[C@@H](F)[C@@H](Nc2nc(Nc3cnn(CC)c3)nc3[nH]cc(Cl)c23)C1 [Example 1, 1-((3S,4R)-3-(5-chloro-2-(1-ethyl-1H-pyrazol-4-ylamino)-7H-pyrrolo[2,3-d]pyrimidin-4-ylamino)-4-fluoropiperidin-1-yl)prop-2-en-1-one] |
| 49 | 0.8 | 0.1 | C=CC(=O)N1CC[C@@H](F)[C@@H](Nc2nc(Nc3cnn(CC(F)F)c3)nc3[nH]cc(Cl)c23)C1 [Example 2, 1-((3S,4R)-3-(5-chloro-2-(1-(2,2-difluoroethyl)-1H-pyrazol-4-ylamino)-7H-pyrrolo[2,3-d]pyrimidin-4-ylamino)-4-fluoropiperidin-1-yl)prop-2-en-1-one] |
|  | 0.8 | 0.1 | C=CC(=O)N1CC[C@@H](F)[C@@H](Nc2nc(Nc3cnn(C4CC4)c3)nc3[nH]cc(Cl)c23)C1 [Example 3, 1-((3S,4R)-3-(5-chloro-2-(1-cyclopropyl-1H-pyrazol-4-ylamino)-7H-pyrrolo[2,3-d]pyrimidin-4-ylamino)-4-fluoropiperidin-1-yl)prop-2-en-1-one] |
| 51.8 | 3.2 | 0.2 | C=CC(=O)N1CC[C@@H](F)[C@@H](Nc2nc(Nc3cnoc3)nc3[nH]cc(Cl)c23)C1 [Example 4, 1-((3S,4R)-3-(5-chloro-2-(isoxazol-4-ylamino)-7H-pyrrolo[2,3-d]pyrimidin-4-ylamino)-4-fluoropiperidin-1-yl)prop-2-en-1-one] |
| 288 | 3.9 | 0.6 | C=CC(=O)N1CC[C@@H](F)[C@@H](Nc2nc(Nc3cnsc3)nc3[nH]cc(Cl)c23)C1 [Example 5, 1-((3S,4R)-3-(5-chloro-2-(isothiazol-4-ylamino)-7H-pyrrolo[2,3-d]pyrimidin-4-ylamino)-4-fluoropiperidin-1-yl)prop-2-en-1-one] |
|  | 0.9 | 0.2 | C=CC(=O)N1CC[C@@H](F)[C@@H](Nc2nc(Nc3cnn(CC)c3)nc3[nH]cc(C#N)c23)C1 [Example 6, 4-((3S,4R)-1-acryloyl-4-fluoropiperidin-3-ylamino)-2-(1-ethyl-1H-pyrazol-4-ylamino)-7H-pyrrolo[2,3-d]pyrimidine-5-carbonitrile] |
|  | 0.8 | 0.2 | C=CC(=O)N1CC[C@@H](F)[C@@H](Nc2nc(Nc3cnn(CC(F)F)c3)nc3[nH]cc(C#N)c23)C1 [Example 7, 4-((3S,4R)-1-acryloyl-4-fluoropiperidin-3-ylamino)-2-(1-(2,2-difluoroethyl)-1H-pyrazol-4-ylamino)-7H-pyrrolo[2,3-d]pyrimidine-5-carbonitrle] |
|  | 0.9 | 0.3 | C=CC(=O)N1CC[C@@H](F)[C@@H](Nc2nc(Nc3cnn(C4CC4)c3)nc3[nH]cc(C#N)c23)C1 [Example 8, 4-((3S,4R)-1-acryloyl-4-fluoropiperidin-3-ylamino)-2-(1-cyclopropyl-1H-pyrazol-4-ylamino)-7H-pyrrolo[2,3-d]pyrimidine-5-carbonitrle] |
| 282 | 2.2 | 0.3 | C=CC(=O)N1CC[C@@H](F)[C@@H](Nc2nc(Nc3cnoc3)nc3[nH]cc(C#N)c23)C1 [Example 9, 4-((3S,4R)-1-acryloyl-4-fluoropiperidin-3-ylamino)-2-(isoxazol-4-ylamino)-7H-pyrrolo[2,3-d]pyrimidine-5-carbonitrle] |
| 242 | 3.3 | 0.5 | C=CC(=O)N1CC[C@@H](F)[C@@H](Nc2nc(Nc3cnn(CC)c3)nc3[nH]cc(C)c23)C1 [Example 10, 1-((3S,4R)-3-(2-(1-ethyl-1H-pyrazol-4-ylamino)-5-methyl-7H-pyrrolo[2,3-d]pyrimidin-4-ylamino)-4-fluoropiperidin-1-yl)prop-2-en-1-one] |
| 248 | 9.1 | 0.7 | C=CC(=O)N1CC[C@@H](F)[C@@H](Nc2nc(Nc3cnoc3)nc3[nH]cc(C)c23)C1 [Example 11, 1-((3S,4R)-4-fluoro-3-(2-(isoxazol-4-ylamino)-5-methyl-7H-pyrrolo[2,3-d]pyrimidin-4-ylamino)piperidin-1-yl)prop-2-en-1-one] |
| 25.4 | 1 | 0.2 | C=CC(=O)N1CC[C@H](F)[C@@H](Nc2nc(Nc3cnn(CC)c3)nc3[nH]cc(Cl)c23)C1 [Example 12, 1-((3S,4S)-3-(5-chloro-2-(1-ethyl-1H-pyrazol-4-ylamino)-7H-pyrrolo[2,3-d]pyrimidin-4-ylamino)-4-fluoropiperidin-1-yl)prop-2-en-1-one] |
